Measured values taken from publication PMC7997369, “Assessment of the Multifunctional Behavior of Lupin Peptide P7 and Its Metabolite Using an Integrated Strategy” (Journal of Agricultural and Food Chemistry, 2020).
No end group written: not given here.

Target: T1, HMGCoAR (catalytic domain) (Homo sapiens, UniProt P04035)
T1 construct: finally the HMGCoAR (catalytic domain) (2 µL); purchased Sigma
T1 sequence (P04035 426-888 limits assumed): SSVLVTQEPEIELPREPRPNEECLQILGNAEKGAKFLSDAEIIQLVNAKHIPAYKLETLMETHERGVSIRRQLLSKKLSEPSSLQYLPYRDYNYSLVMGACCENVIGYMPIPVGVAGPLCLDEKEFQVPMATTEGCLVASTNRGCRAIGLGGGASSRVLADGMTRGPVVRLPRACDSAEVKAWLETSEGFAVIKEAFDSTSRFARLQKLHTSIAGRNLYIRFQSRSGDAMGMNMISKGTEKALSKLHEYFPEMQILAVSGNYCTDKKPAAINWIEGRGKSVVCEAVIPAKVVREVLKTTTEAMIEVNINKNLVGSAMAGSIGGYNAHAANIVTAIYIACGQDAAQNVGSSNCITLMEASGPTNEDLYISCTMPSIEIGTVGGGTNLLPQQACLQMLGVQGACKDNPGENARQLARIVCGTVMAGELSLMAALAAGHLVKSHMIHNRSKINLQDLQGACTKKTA
Assay: In vitro HMGCoAR inhibitory activity assay
Assay type: biochemical
Conditions: 37 °C, NADPH absorbance at 340 nm, mean ± sd of three independent experiments in triplicate
Description: The assay buffer, NADPH, substrate solution, and HMGCoAR were provided in the HMGCoAR assay kit (Sigma). The experiments were carried out testing LTFPG at 100 and 250 μM at 37 °C in agreement with the conditions previously reported.[8] For further details, see the Supporting Information.
The assay buffer, NADPH, substrate solution, and HMGCoAR were provided in the HMGCoAR Assay Kit (Sigma). The experiments were carried out following the manufacturer’s instructions at 37 °C. In particular, each reaction (200 µL) was prepared adding the reagents in the following order: 1 X assay buffer, LTFPG (100.0 and 250.0 µM) or vehicle (C), the NADPH (4 µL), the substrate solution (12 µL), and finally the HMGCoAR (catalytic domain) (2 µL). Subsequently, the samples were mixed and the absorbance at 340 nm read by a microplate reader Synergy H1 from Biotek at time 0 and 10 min. The HMGCoAR-dependent oxidation of NADPH and the inhibition properties of lupin peptides were measured by absorbance reduction, which is directly proportional to enzyme […]
In vitro ACE-inhibitory assay […]
The evaluation of the inhibition of ACE activity was based on the comparison between the concentrations of HA in the presence or absence of the inhibitor (Inhibitor Blank). The phenomenon of autolysis of HHL to give HA was evaluated by a reaction blank, i.e. a sample with the higher

inhibition at 100 µM (100 μM): 4.7 ± 0.3%
inhibition at 250 µM (250 μM): 10.3 ± 0.8%
Substance: LTFPG [LTFPG]
